Values quoted from earlier work in patent US10878939B2, “Methods and compositions for personalized pain management” (Children's Hospital Medical Center, priority 2014, dated 2020).

Conditions: other reports; cited from earlier work

Compound: CN1CC[C@]23c4c5ccc(O[C@@H]6O[C@H](C(=O)O)[C@@H](O)[C@H](O)[C@H]6O)c4O[C@H]2[C@@H](O)C=C[C@H]3[C@H]1C5 [M3G, Morphine-3-Glucuronide]
- M3G metabolite formation relative to M6G formation: 7-10 fold
